Measurements from PMC7767178 (International Journal of Molecular Sciences, 2020).

Conditions: 60 min, 200 μg/mL peptide, 37 °C, inhibition zone against A. veronii ACCC61732
Description: Briefly, a final concentration of 200 μg/mL peptide was incubated in SGF and SIF at 37 °C. At different time intervals, an aliquot of 20 μL mixture was taken and the activity of peptides was tested against A. veronii ACCC61732 by the inhibition zone assay. […] in PBS was used as the positive control; SGF and SIF were used as negative controls.

For `CC(C)[C@H]1NC(=O)CNC(=O)[C@@H](CC(N)=O)NC(=O)[C@@H](CCCNC(=N)N)NC(=O)[C@@H](Cc2ccc(O)cc2)NC(=O)[C@@H](C(C)C)NC(=O)[C@H](NC(=O)[C@H](NC(=O)[C@@H](CC(N)=O)NC(=O)[C@@H](Cc2c[nH]c3ccccc23)NC(=O)[C@@H](C)NC(=O)[C@@H](Cc2ccccc2)NC(=O)CN)C(C)C)CSSC[C@H](C(=O)N[C@H](Cc2c[nH]cn2)C(=O)N[C@H](CCCNC(=N)N)C(=O)N[C@H](CCCNC(=N)N)C(=O)N[C@H](C)C(=O)N[C@H](CC(N)=O)C(N)=O)NC(=O)[C@@H](C(C)C)NC(=O)[C@@H](CCCNC(=N)N)NC1=O` [DN6NH2], the “antibacterial activity after treatment in SGF” value was “higher antibacterial activity than N6NH2 and other analogs”.
